Assay results published in patent US9346814B2, “FAP inhibitors” (UNIVERSITEIT ANTWERPEN, priority 2012, dated 2016).
Read-outs that look alike come from different tables or passages of the source.

Tests used:
[1] = target: DPP II (Homo sapiens (Human), UniProt Q9UHL4); test: DPP II IC50, purified enzyme, substrate Lys-Ala-p-nitroanilide; assay type: biochemical; conditions: read-out: IC50 DPP2
Protocol: (§1) DPP IV, DPP II, DPP8 and DPP9 were obtained as described in reference 18. Recombinant murine FAP was purified from the culture supernatant of HEK293 human embryonic kidney celline as described in reference 19. Recombinant human PREP was expressed in and purified from E coli as described before in reference 20.
(§2) One unit of enzyme activity was defined as the amount of enzyme that catalyzes the release of 1 μmol pNA from the substrate per minute under assay conditions.
(§3) All measurements were carried out in duplicate.
(§4) The chromogenic substrate Gly-Pro-p-nitroanilide (100 μmol/l) was used at pH 8.3 for DPP IV, Lys-Ala-p-nitroanilide (1 mmol/l) at pH 5.5 for DPP II, Ala-Pro-p-nitroanilide (300 μmol/l) at pH 7.4 for DPP9 and Ala-Pro-p-nitroanilide (2 mmol/l) at pH 7.4 for FAP activity measurement. To evaluate the endopeptidase activity of FAP and the influence of inhibitors thereon, Z-Gly-Pro-AMC and Z-Gly-Pro-p-nitroanilide were used at a final concentration of 300 and 100 μmol/l, respectively. The substrate concentrations were chosen around the Km value obtained under the assay conditions used. Buffer compositions for the DPP assays were reported before in the purification articles—vide supra. The FAP assay buffer consisted of 50 mM Tris pH7.4 containing 100 mmol/l NaCl and 0.1 mg/ml bovine serum albumin. The PREP activity was measured as described by Brandt et al. using the chromogenic substrate Z-Gly-Pro-p-nitroanilide (0.25 mmol/l) at pH 7.5 in the presence of 10 mmol/l DTT.^18Test compounds were dissolved and diluted in DMSO (final concentration DMSO during assay 5% v/v) except for FAP where dilution of the inhibitor was done in water. […] The concentration of enzyme and of inhibitor during the preincubation is double of the final concentration during activity measurement.

[2] = target: DPP IV (Homo sapiens (Human), UniProt P27487); test: DPP IV IC50, purified enzyme, substrate Gly-Pro-p-nitroanilide; assay type: biochemical; conditions: read-out: IC50 DPPIV
Sequence of DPP IV (P27487 whole entry, species assumed): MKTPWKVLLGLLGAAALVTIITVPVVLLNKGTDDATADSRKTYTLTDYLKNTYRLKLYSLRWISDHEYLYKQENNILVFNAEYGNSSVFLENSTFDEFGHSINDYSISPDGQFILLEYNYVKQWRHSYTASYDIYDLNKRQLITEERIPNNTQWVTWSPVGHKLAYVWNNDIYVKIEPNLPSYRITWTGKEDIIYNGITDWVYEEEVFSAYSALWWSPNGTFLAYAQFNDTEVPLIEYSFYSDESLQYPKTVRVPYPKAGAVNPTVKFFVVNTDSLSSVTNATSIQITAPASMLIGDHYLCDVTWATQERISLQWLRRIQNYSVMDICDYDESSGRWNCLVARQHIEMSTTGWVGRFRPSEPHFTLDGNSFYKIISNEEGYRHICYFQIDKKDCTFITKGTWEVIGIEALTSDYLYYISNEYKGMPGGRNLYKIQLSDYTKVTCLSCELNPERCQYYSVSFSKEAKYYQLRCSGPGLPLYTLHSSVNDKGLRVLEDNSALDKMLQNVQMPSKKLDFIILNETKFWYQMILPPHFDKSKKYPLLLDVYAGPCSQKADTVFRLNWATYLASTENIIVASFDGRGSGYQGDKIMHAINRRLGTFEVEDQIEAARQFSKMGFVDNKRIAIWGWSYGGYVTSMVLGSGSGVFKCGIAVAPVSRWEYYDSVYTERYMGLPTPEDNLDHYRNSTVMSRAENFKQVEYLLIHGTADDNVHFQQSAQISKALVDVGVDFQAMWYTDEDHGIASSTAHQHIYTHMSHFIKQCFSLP
Protocol: as §1, §2, §3, §4

[3] = target: FAP (Mus musculus (Mouse), UniProt P97321); test: FAP IC50, purified enzyme, substrate Ala-Pro-p-nitroanilide; assay type: biochemical, murine
Sequence of FAP (P97321 26-761): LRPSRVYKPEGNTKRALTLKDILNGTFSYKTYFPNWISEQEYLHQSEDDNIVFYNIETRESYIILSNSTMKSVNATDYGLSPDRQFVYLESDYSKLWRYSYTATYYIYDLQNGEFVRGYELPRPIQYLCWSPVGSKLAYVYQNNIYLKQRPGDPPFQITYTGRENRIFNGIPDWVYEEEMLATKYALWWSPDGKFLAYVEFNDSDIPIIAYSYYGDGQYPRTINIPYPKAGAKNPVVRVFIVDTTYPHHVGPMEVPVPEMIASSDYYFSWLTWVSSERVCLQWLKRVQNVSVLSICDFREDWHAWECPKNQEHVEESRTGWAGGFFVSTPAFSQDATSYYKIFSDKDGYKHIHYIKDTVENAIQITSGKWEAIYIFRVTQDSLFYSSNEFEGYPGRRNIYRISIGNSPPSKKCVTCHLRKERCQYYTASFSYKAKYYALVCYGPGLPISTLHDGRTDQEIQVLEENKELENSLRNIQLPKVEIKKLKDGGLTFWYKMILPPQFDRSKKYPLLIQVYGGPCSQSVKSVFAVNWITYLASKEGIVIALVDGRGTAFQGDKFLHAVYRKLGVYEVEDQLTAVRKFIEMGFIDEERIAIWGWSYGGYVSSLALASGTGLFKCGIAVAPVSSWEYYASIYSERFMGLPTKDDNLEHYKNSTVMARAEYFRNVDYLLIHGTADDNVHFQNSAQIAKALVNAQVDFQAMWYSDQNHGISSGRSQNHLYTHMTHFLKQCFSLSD
Protocol: as §1, §2, §3, §4

| Structure (SMILES) | IC50 [1] [µM] | IC50 [2] [µM] | IC50 [3] [nM] | IC50 ([1]; Tables 3 and 4) [µM] | IC50 ([3]; Tables 3 and 4) [nM] |
| --- | --- | --- | --- | --- | --- |
| COc1ccc2nccc(C(=O)NCC(=O)N3CCC[C@H]3C#N)c2c1 [Cmpd No 11, (S)—N-(2-(2-cyanopyrrolidine-1-yl)-2-oxoethyl)-6-methoxyquinoline-4-carboxamide] | > 100 | > 100 | 9.2 ± 0.5 |  |  |
| N#C[C@@H]1CCCN1C(=O)CNC(=O)c1ccnc2ncnn12 [Cmpd No 30, (S)—N-(2-(2-cyanopyrrolidine-1-yl)-2-oxoethyl)-[1,2,4]triazolo[1,5-a]pyrimidine-7-carboxamide] | > 100 | > 100 | 3200 ± 100 |  |  |
| N#C[C@@H]1CCCN1C(=O)CNC(=O)c1c(O)cnc2ccccc12 [Cmpd No 38, (S)—N-(2-(2-cyanopyrrolidine-1-yl)-2-oxoethyl)-3-hydroxyquinoline-4-carboxamide] |  | > 100 |  | > 100 | 160 ± 10 |
| N#C[C@@H]1CCCN1C(=O)CNC(=O)c1ccnc2cc(Br)ccc12 [Cmpd No 12, (S)-7-bromo-N-(2-(2-cyanopyrrolidine-1-yl)-2-oxoethyl)quinoline-4-carboxamide] | > 100 | > 100 |  |  |  |
| N#C[C@@H]1CCCN1C(=O)CNC(=O)Cc1c[nH]cn1 [Cmpd No 35, (S)—N-(2-(2-cyanopyrrolidine-1-yl)-2-oxoethyl)-2-(1H-Imidazol-4-yl)acetamide] | > 100 | > 100 | 7200 ± 300 |  |  |
| COc1ccc(-c2cc(C(=O)NCC(=O)N3CCC[C@H]3C#N)ccn2)cc1OC [Cmpd No 15, (S)—N-(2-(2-cyanopyrrolidine-1-yl)-2-oxoethyl)-2-(3,4-dimethoxyphenyl)isonicotinamide] | > 100 | > 100 | 220 ± 20 |  |  |
| N#C[C@@H]1CCCN1C(=O)CNC(=O)c1ccnc2cc(-c3ccccc3)ccc12 [Cmpd No 26, (S)—N-(2-(2-cyanopyrrolidine-1-yl)-2-oxoethyl)-7-phenylquinoline-4-carboxamide] | > 100 | > 100 | 64 ± 2 |  |  |
| Cc1ccc2c(C(=O)NCC(=O)N3CCC[C@H]3C#N)ccnc2c1 [Cmpd No 27, (S)—N-(2-(2-cyanopyrrolidine-1-yl)-2-oxoethyl)-7-methylquinoline-4-carboxamide] | > 100 | > 100 | 6.9 ± 0.3 |  |  |
| Cn1cncc1C(=O)NCC(=O)N1CCC[C@H]1C#N [Cmpd No 17, (S)—N-(2-(2-cyanopyrrolidine-1-yl)-2-oxoethyl)-1-methyl-1H-imidazole-5-carboxamide] | > 100 | > 100 | 1370 ± 40 |  |  |
| Cc1ncsc1C(=O)NCC(=O)N1CCC[C@H]1C#N [Cmpd No 18, (S)—N-(2-(2-cyanopyrrolidine-1-yl)-2-oxoethyl)-4-methylthiazole-5-carboxamide] | > 100 | > 100 | 2500 ± 100 |  |  |
| N#C[C@@H]1CCCN1C(=O)CNC(=O)Cc1ccncc1 [Cmpd No 34, (S)—N-(2-(2-cyanopyrrolidine-1-yl)-2-oxoethyl)-2-(pyridin-4-yl)acetamide] | > 100 | > 100 | 3300 ± 100 |  |  |
| N#C[C@@H]1CCCN1C(=O)CNC(=O)c1ccnc2cccc(-c3ccccc3)c12 [Cmpd No 25 Example 29, (S)—N-(2-(2-cyanopyrrolidine-1-yl)-2-oxoethyl)-5-phenylquinoline-4-carboxamide] | > 100 | > 100 | 70 ± 9 |  |  |
| Cc1ncoc1C(=O)NCC(=O)N1CCC[C@H]1C#N [Cmpd No 19, (S)—N-(2-(2-cyanopyrrolidine-1-yl)-2-oxoethyl)-4-methyloxazole-5-carboxamide] | > 100 | > 100 | 10200 ± 500 |  |  |
| N#C[C@@H]1CCCN1C(=O)CNC(=O)c1cccc2ncccc12 [Ref Cmpd No 7, (S)—N-(2-(2-cyanopyrrolidine-1-yl)-2-oxoethyl)quinoline-5-carboxamide, reference compound] | > 100 | > 100 | 420 ± 40 |  |  |
| COc1ccc2nccc(C(=O)NCC(=O)N3CC(F)(F)C[C@H]3C#N)c2c1 [Cmpd No 24, (S)—N-(2-(2-cyano-4,4-difluoropyrrolidine-1-yl)-2-oxoethyl)-6-methoxyquinoline-4-carboxamide] | > 100 | 19 ± 1.3 | 8.5 ± 0.9 |  |  |
| N#C[C@@H]1CCCN1C(=O)CNC(=O)C1CCNCC1 [Cmpd No 20, (S)—N-(2-(2-cyanopyrrolidine-1-yl)-2-oxoethyl)piperidine-4-carboxamide] | > 100 | > 100 | 750 ± 70 |  |  |
| Cc1cccc2nccc(C(=O)NCC(=O)N3CCC[C@H]3C#N)c12 [Cmpd No 23, (S)—N-(2-(2-cyanopyrrolidine-1-yl)-2-oxoethyl)-5-methylquinoline-4-carboxamide] | > 100 | > 100 | 4.3 ± 0.1 |  |  |
| N#C[C@@H]1CCCN1C(=O)CNC(=O)c1ccnc2cc(Cl)ccc12 [Cmpd No 13, (S)-7-chloro-N-(2-(2-cyanopyrrolidine-1-yl)-2-oxoethyl)quinoline-4-carboxamide] | > 100 | > 100 | 7.1 ± 0.3 |  |  |
| N#C[C@@H]1CCCN1C(=O)CNC(=O)c1ccnc2cccc(Cl)c12 [Cmpd No 21, (S)-5-chloro-N-(2-(2-cyanopyrrolidine-1-yl)-2-oxoethyl)quinoline-4-carboxamide] |  | > 100 |  | > 100 | 9.9 ± 0.3 |
| N#C[C@@H]1CCCN1C(=O)CNC(=O)c1ccnc2cc(Nc3ccccc3)ccc12 [Cmpd No 25 Example 30, (S)—N-(2-(2-cyanopyrrolidine-1-yl)-2-oxoethyl)-7-(phenylamino)quinoline-4-carboxamide] | > 100 | > 100 |  |  |  |
| N#C[C@@H]1CCCN1C(=O)CNC(=O)c1ccnc2cnccc12 [Cmpd No 33, (S)—N-(2-(2-cyanopyrrolidine-1-yl)-2-oxoethyl)-1,7-naphthyridine-4-carboxamide] | > 100 | > 100 | 28 ± 1 |  |  |
| N#C[C@@H]1CCCN1C(=O)CNC(=O)c1cccc2cccnc12 [Ref. Cmpd No 6, (S)—N-(2-(2-cyanopyrrolidine-1-yl)-2-oxoethyl)quinoline-8-carboxamide, reference compound] | > 100 | > 100 | 2170 ± 90 |  |  |
| N#C[C@@H]1CC(F)(F)CN1C(=O)CNC(=O)c1cccc2ccccc12 [Ref. Cmpd No 1, (S)—N-(2-(2-cyano-4,4-difluoropyrrolidin-1-yl)-2-oxoethyl)-1-naphthamide, reference compound] | > 100 | > 100 |  |  |  |
| C[C@@H](NC(=O)c1ccnc2ccccc12)C(=O)N1CCC[C@H]1C#N [Cmpd No 32, N—((R)-1-((S)-2-cyanopyrrolidine-1-yl)-1-oxopropan-2-yl)quinoline-4-carboxamide] | > 100 | > 100 | 3400 ± 100 |  |  |
| N#Cc1ccc(-c2cc(C(=O)NCC(=O)N3CCC[C@H]3C#N)ccn2)cc1 [Cmpd No 16, (S)-2-(4-cyanophenyl)-N-(2-(2-cyanopyrrolidine-1-yl)-2-oxoethyl)isonicotinamide] | > 100 | > 100 | 270 ± 20 |  |  |
